The first assay has as its system E. coli ATCC25922. Put plainly: Antibacterial activity in combination with minocycline (growth inhibition). In kind it is cell-based. The note with it: Escherichia coli, ATCC25922, compound at 25 μM; minocycline 0.25 μg/mL; OD625 23 h minus 1 h; read-out: residual growth of E. coli ATCC25922 (% of uninhibited control) with minocycline. In short, it runs like this:
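Test compound combined with fixed subinhibitory partner antibiotic: linezolid 128 μg/mL for either strain, minocycline 0.25 μg/mL (E. coli) or 8 μg/mL (P. aeruginosa), in caMHB shaken at 37 °C. Residual growth as % of inhibitor-free control, from OD625 at 23 h minus 1 h.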
Consider `CC(C)COc1cc(CNCC2CCNC2)cc(OCc2ccc(F)cc2C(F)(F)F)c1` (stereo not shown) [Example 280], for which the activity at 25 µM was at most 10%.

For `CC(C)COc1cc(CNCC2CCNC2)cc(OCc2ccc(Cl)cc2C(F)(F)F)c1` (stereo not shown) [Example 281], the activity at 25 µM is at most 10%.

As to `CC(C)COc1cc(CNCC2CCNC2)cc(OCc2ccc(C(F)(F)F)cc2Br)c1` (stereo not shown) [Example 282], the activity at 25 µM was at most 10%.

With `CC(C)COc1cc(CNCC2CCNC2)cc(OCc2ccc(F)nc2F)c1` (stereo not shown) [Example 283], the activity at 25 µM is at most 10%.

With `C=CCOc1cc(/C=C/c2ccc(C#N)cc2)cc(CNCC2CNC2)c1` [Example 284], the activity at 25 µM was at most 10%.

As for `CC(C)COc1cc(CNCC2CCNC2)cc(OCc2ccc(C(F)(F)F)cn2)c1` (stereo not shown) [Example 289], the activity at 25 µM is at most 10%.

Turning to `CC(C)COc1cc(CNCC2CCNC2)cc(OCc2ccc(C(C)(C)C)cc2Br)c1` (stereo not shown) [Example 290], the activity at 25 µM was at most 10%.

Regarding `CC(C)COc1cc(CNCC2CCNC2)cc(OCc2ccc(C(F)(F)F)nc2)c1` (stereo not shown) [Example 291], the activity at 25 µM was at most 10%.

As to `C=CCOc1cc(/C=C/c2ccc(C(C)(C)C)cc2)cc(CNCC2CNC2)c1` [Example 292], the activity at 25 µM is at most 10%.

On to `C=CCOc1cc(/C=C/c2ccc(OC)cc2)cc(CNCC2CNC2)c1` [Example 294], for which the activity at 25 µM was at most 10%.

Turning to `CC(C)(C)c1ccc(COc2cc(CNCC3CNC3)cc(C(C)(C)C)c2)cc1` [Example 295], the activity at 25 µM was at most 10%.

As for `C=CCOc1cc(CNCC2CNC2)cc(OCc2ccc(C(C)(C)C)cc2)c1` [Example 296], the activity at 25 µM is at most 10%.

Consider `CC(C)(C)c1ccc(COc2cc(CNCC3CNC3)cc(OCc3ccccc3)c2)cc1` [Example 297], for which the activity at 25 µM is at most 10%.

Take `C=CCOc1cc(/C=C/c2ccc(C#N)c(C(F)(F)F)c2)cc(CNCC2CNC2)c1` [Example 299]: the activity at 25 µM is at most 10%.

`C=CCOc1cc(/C=C/c2ccc(C#N)c(C(F)(F)F)c2)cc(CNCC2CCNC2)c1` (stereo not shown) [Example 300]: the activity at 25 µM was at most 10%.

Regarding `N#Cc1ccc(/C=C/c2cccc(CNCC3CCNC3)c2)cc1C(F)(F)F` (stereo not shown) [Example 301], the activity at 25 µM was at most 10%.

Take `C=CCOc1cc(/C=C/c2ccncc2C#N)cc(CNCC2CCNC2)c1` (stereo not shown) [Example 306]: the activity at 25 µM is at most 10%.

Consider `C=CCOc1cc(/C=C/c2ccc(C#N)cn2)cc(CNCC2CCNC2)c1` (stereo not shown) [Example 307], for which the activity at 25 µM was at most 10%.

Consider `N#Cc1ccc(/C=C/c2cccc(CNCC3CNC3)c2)cc1C(F)(F)F` [Example 308], for which the activity at 25 µM is at most 10%.

Turning to `C=CCOc1cc(/C=C/c2cc(C#N)cc(C(F)(F)F)c2)cc(CNCC2CNC2)c1` [Example 309], the activity at 25 µM was at most 10%.

`C=CCOc1cc(/C=C/c2ccc(C#N)cc2C(F)(F)F)cc(CNCC2CNC2)c1` [Example 310]: the activity at 25 µM was at most 10%.

Turning to `C=CCOc1cc(/C=C/c2ccc(C(F)(F)F)cc2C#N)cc(CNCC2CNC2)c1` [Example 311], the activity at 25 µM was at most 10%.

As to `N#Cc1ccc(/C=C/c2cccc(CNCC3CNC3)c2)c(C(F)(F)F)c1` [Example 312], the activity at 25 µM is at most 10%.

In the case of `C=CCOc1cc(/C=C/c2ccc(C#N)cc2C(F)(F)F)cc(CNCC2CCNC2)c1` (stereo not shown) [Example 313], the activity at 25 µM is at most 10%.

In the case of `C=CCOc1cc(/C=C/c2ncccc2C#N)cc(CNCC2CCNC2)c1` (stereo not shown) [Example 315], the activity at 25 µM is at most 10%.

As to `C=CCOc1cc(/C=C/c2cccs2)cc(CNCC2CNC2)c1` [Example 317], the activity at 25 µM was at most 10%.

With `C=CCOc1cc(/C=C/c2ccsc2)cc(CNCC2CNC2)c1` [Example 318], the activity at 25 µM is at most 10%.

Regarding `C=CCOc1cc(/C=C/c2ccc(C(F)(F)F)c(C#N)c2)cc(CNCC2CNC2)c1` [Example 321], the activity at 25 µM was at most 10%.

Turning to `C=CCOc1cc(CCc2ccc(OC)cc2OC)cc(CNCC2CNC2)c1` [Example 322], the activity at 25 µM was at most 10%.

Consider `C=CCOc1cc(/C=C/c2ccnc(C#N)c2)cc(CNCC2CCNC2)c1` (stereo not shown) [Example 324], for which the activity at 25 µM was at most 10%.

Turning to `C=CCOc1cc(/C=C/c2cncc(C#N)c2)cc(CNCC2CCNC2)c1` (stereo not shown) [Example 325], the activity at 25 µM was at most 10%.

Take `C=CCOc1cc(/C=C/c2ccc(C#N)nc2)cc(CNCC2CCNC2)c1` (stereo not shown) [Example 326]: the activity at 25 µM is at most 10%.

Turning to `C=CCOc1cc(/C=C/c2csc(C(C)C)n2)cc(CNCC2CNC2)c1` [Example 327], the activity at 25 µM is at most 10%.

With `C=CCOc1cc(/C=C/c2c(C#N)cccc2C(F)(F)F)cc(CNCC2CNC2)c1` [Example 328], the activity at 25 µM was at most 10%.

For the molecule `C=CCOc1cc(/C=C/c2cc(C#N)ccn2)cc(CNCC2CCNC2)c1` (stereo not shown) [Example 329], the activity at 25 µM is at most 10%.

In the case of `C=CCOc1cc(/C=C/c2csc(C(C)C)n2)cc(CNCC2CCNC2)c1` (stereo not shown) [Example 330], the activity at 25 µM was at most 10%.

As for `CC(C)COc1cc(/C=C/c2ccccn2)cc(CNCC2CCNC2)c1` (stereo not shown) [Example 333], the activity at 25 µM was at most 10%.

With `CC(C)COc1cc(/C=C/c2ccncc2)cc(CNCC2CCNC2)c1` (stereo not shown) [Example 334], the activity at 25 µM was at most 10%.

`C=CCOc1cc(/C=C/c2cccnc2)cc(CNCC2CNC2)c1` [Example 335]: the activity at 25 µM is at most 10%.

Take `C=CCOc1cc(/C=C/c2ccccn2)cc(CNCC2CNC2)c1` [Example 336]: the activity at 25 µM was at most 10%.

On to `C=CCOc1cc(/C=C/c2ccncc2)cc(CNCC2CNC2)c1` [Example 338], for which the activity at 25 µM is at most 10%.

As to `C=CCOc1cc(/C=C/c2ccc(C(N)=O)cc2)cc(CNCC2CNC2)c1` [Example 339], the activity at 25 µM is at most 10%.

On to `C=CCOc1cc(/C=C/c2cccc(C(N)=O)c2)cc(CNCC2CNC2)c1` [Example 340], for which the activity at 25 µM is at most 10%.

As to `Clc1ccc(/C=C/c2cc(CNCC3CCNC3)cc(OCCc3ccccn3)c2)c(Br)c1` (stereo not shown) [Example 341], the activity at 25 µM was at most 10%.

With `NC(=O)COc1cc(/C=C/c2ccc(Cl)cc2Br)cc(CNCC2CCNC2)c1` (stereo not shown) [Example 342], the activity at 25 µM is at most 10%.

For `Clc1ccc(/C=C/c2cc(CNCC3CCNC3)cc(OCc3c[nH]cn3)c2)c(Br)c1` (stereo not shown) [Example 344], the activity at 25 µM was at most 10%.

Regarding `Cn1cnc(COc2cc(/C=C/c3ccc(Cl)cc3Br)cc(CNCC3CCNC3)c2)c1` (stereo not shown) [Example 345], the activity at 25 µM was at most 10%.

On to `Clc1ccc(/C=C/c2cc(CNCC3CCNC3)cc(OCc3ccccn3)c2)c(Br)c1` (stereo not shown) [Example 346], for which the activity at 25 µM was at most 10%.

For `Cc1cc(COc2cc(/C=C/c3ccc(Cl)cc3Br)cc(CNCC3CCNC3)c2)no1` (stereo not shown) [Example 347], the activity at 25 µM was at most 10%.

Consider `C=CCOc1cc(/C=C/c2nc(C(F)(F)F)cs2)cc(CNCC2CNC2)c1` [Example 348], for which the activity at 25 µM was at most 10%.

On to `C=CCOc1cc(/C=C/c2ccc(Cl)cc2Br)cc(CNC(=O)C2CCNCC2)c1` [Example 354, N-[[3-allyloxy-5-[(E)-2-(2-bromo-4-chloro-phenyl)vinyl]phenyl]methyl]piperidine-4-carboxamide], for which the activity at 25 µM was at most 10%.

For the molecule `C=CCOc1cc(/C=C/c2nc(C3CC3)cs2)cc(CNCC2CCNC2)c1` (stereo not shown) [Example 355], the activity at 25 µM is at most 10%.

`C=CCOc1cc(/C=C/c2nc(C3CC3)cs2)cc(CNCC2CNC2)c1` [Example 356]: the activity at 25 µM was at most 10%.

For the molecule `C=CCOc1cc(CNCC2CCNC2)cc(CNC(=O)c2ccc(C(C)(C)C)cc2)c1` (stereo not shown) [Example 357], the activity at 25 µM was at most 10%.

On to `Cc1nc(COc2cc(/C=C/c3ccc(Cl)cc3Br)cc(CNCC3CCNC3)c2)cs1` (stereo not shown) [Example 359], for which the activity at 25 µM was at most 10%.

Regarding `Clc1ccc(/C=C/c2cc(CNCC3CCNC3)cc(OCc3ccncc3)c2)c(Br)c1` (stereo not shown) [Example 360], the activity at 25 µM was at most 10%.

For `Nc1nc(COc2cc(/C=C/c3ccc(Cl)cc3Br)cc(CNCC3CCNC3)c2)cs1` (stereo not shown) [Example 361], the activity at 25 µM was at most 10%.

For `C=CCOc1cc(/C=C/c2nc(C(C)C)cs2)cc(CNCC2CNC2)c1` [Example 362], the activity at 25 µM is at most 10%.

For `C=CCOc1cc(CNCC2CCNC2)cc(CNS(=O)(=O)c2ccc(C(C)(C)C)cc2)c1` (stereo not shown) [Example 364], the activity at 25 µM was at most 10%.

Take `C=CCOc1cc(/C=C/c2ccc(Cl)cc2Br)cc(CNC(=O)[C@@H]2CCNC2)c1` [Example 367]: the activity at 25 µM is at most 10%.

Consider `C=CCOc1cc(CNCC2CNC2)cc(CNS(=O)(=O)c2ccc(C(C)(C)C)cc2)c1` [Example 369, N-[[3-allyloxy-5-[(azetidin-3-ylmethylamino)methyl]phenyl]methyl]-4-tert-butyl-benzenesulfonamide], for which the activity at 25 µM was at most 10%.

For `C=CCOc1cc(CNCC2CNC2)cc(C(=O)NCc2ccc(Cl)cc2Br)c1` [Example 370], the activity at 25 µM was at most 10%.

On to `C=CCOc1cc(/C=C/c2ccc(Cl)cc2Br)cc(CNC(=O)CNCC2CNC2)c1` [Example 371], for which the activity at 25 µM was at most 10%.

As to `C=CCOc1cc(CNCC2CCNC2)cc(C(=O)Nc2ccc(Cl)cc2Br)c1` (stereo not shown) [Example 373], the activity at 25 µM was at most 10%.

Regarding `CC(C)COc1cc(/C=C/c2ccccc2C(N)=O)cc(CNCC2CCNC2)c1` (stereo not shown) [Example 375], the activity at 25 µM is at most 10%.

Turning to `C=CCOc1cc(CNCC2CNC2)cc(CNC(=O)c2ccc(Cl)cc2Br)c1` [Example 376], the activity at 25 µM was at most 10%.

With `CC(C)(C)c1ccc(S(=O)(=O)NCc2cc(CNCC3CCNC3)cc(OCCc3c[nH]cn3)c2)cc1` (stereo not shown) [Example 377], the activity at 25 µM was at most 10%.

As to `C=CCOc1cc(CNCC2CCNC2)cc(C(=O)NCc2ccc(Cl)cc2Br)c1` (stereo not shown) [Example 380], the activity at 25 µM was at most 10%.

Staying with this assay, now noted: Escherichia coli, ATCC25922, compound at 50 μM; minocycline 0.25 μg/mL; OD625 23 h minus 1 h; read-out: residual growth of E. coli ATCC25922 (% of uninhibited control) with minocycline.
For the molecule `CC(C)COc1cc(CNCC2CCNC2)cc(OCc2cccnc2Br)c1` (stereo not shown) [Example 278], the activity at 50 µM is at most 50%.

As to `Clc1ccc(/C=C/c2cc(CNCC3CCNC3)cc(OCc3ccccn3)c2)c(Br)c1` (stereo not shown) [Example 346], the activity at 50 µM is at most 50%.

For the origin of these results see patent US10464896B2, “Efflux-pump inhibitors and therapeutic uses thereof” (Basilea Pharmaceutica International AG, priority 2015, dated 2019).
